# Test results reported in patent publication US9296732B2, “Substituted benzamides and their uses” (The Board of Trustees of the Leland Stanford Junior …, priority 2012, dated 2016).
# Tested on: RCC4/VHL
# Experiment: XTT cell viability assay, RCC4 with VHL-reintroduced (RCC4/VHL) versus RCC4, selectivity ratio
# Assay type: cell-based
# Settings: first TABLE 1 (II series)
# Experimental: (§1) RCC4 parental and RCC4 with VHL-reintroduced (RCC4/VHL), SN12C and SN12C-CSCG-VHL shRNA were maintained in DMEM supplemented with 10% FCS.
# (§2) For 2,3-bis[2-methoxy-4-nitro-5-sulfophenyl]-2H-tetrazolium-5-carboxanilide (XTT) assays, five thousand cells were plated in 96-well plates. The next day, vehicle (DMSO) or drug was added by serial dilution. Four days later, media were aspirated, XTT solution (0.3 mg/ml of XTT (Sigma), 2.65 mg/ml N-methyl dibenxopyrazine methyl sulfate (Simga) in phenol red-free media) was added, and the plates were incubated at 37° C. for 1-2 hours. Metabolism of XTT was quantified by measuring the absorbance at 450 nm. IC50s were calculated using linear interpolation. For clonogenic survival assays, three hundred cells were plated per 60 mm tissue culture dish. The cells were allowed to attach overnight and then treated with vehicle or drug for 14 days. Colonies were fixed and stained with crystal violet (0.1% crystal violet in 95% ethanol). All conditions were measured in triplicate and each experiment was done in duplicate or triplicate. To determine necrosis, cells were treated with drug for a given time point. Media and cells were collected, centrifugated, and resuspended in 0.4% trypan blue (Invitrogen). Live and dead cells were counted on a hematocytometer.
# (§3) The designation A reflects an IC50 of <1 nM; B reflects an IC50 ranging from 1 to 20 nM; and C is an IC50 of >20 nM. The designation “a” reflects a ratio of RCC4/RCC-VHL+ ranging from 1 to ≦10; “b” reflects from 10 to ≦100; “c” reflects a ratio of >100. Compounds 1-29 have an IC50 value of ≦10 μM when tested in the above assay.
row,SMILES,Ratio = IC50RCC4/VHL/IC50RCC4
1,"O=C(Nc1cccnc1)c1ccc(CNS(=O)(=O)c2ccc(Oc3ccccc3)nc2)cc1 [II-3, 4-({[(6-Phenoxy-3-pyridinyl)sulfonyl]amino}methyl)-N-(3-pyridinyl)benzamide]",a (a ratio of RCC4/RCC-VHL+ ranging from 1 to ≦10)
2,"O=C(Nc1cccnc1)c1ccc(CNS(=O)(=O)c2ccco2)cc1 [II-8, N-(3-Pyridinyl)-4-{[(2-furanylsulfonyl)amino]methyl}benzamide]",a (a ratio of RCC4/RCC-VHL+ ranging from 1 to ≦10)
3,"O=C(Nc1cccnc1)c1ccc(CNS(=O)(=O)c2cccnc2)cc1 [II-1, N-(3-Pyridinyl)-4-{[(3-pyridylsulfonyl)amino]methyl}benzamide]",a (a ratio of RCC4/RCC-VHL+ ranging from 1 to ≦10)
4,"O=C(Nc1cccnc1)c1ccc(CNS(=O)(=O)c2ccsc2)cc1 [II-5, N-(3-Pyridinyl)-4-{[(3-thienylsulfonyl)amino]methyl}benzamide]",a (a ratio of RCC4/RCC-VHL+ ranging from 1 to ≦10)
5,"O=C(Nc1cccnc1)c1ccc(CNS(=O)(=O)c2cccs2)cc1 [II-4, N-(3-Pyridinyl)-4-{[(2-thienylsulfonyl)amino]methyl}benzamide]",a (a ratio of RCC4/RCC-VHL+ ranging from 1 to ≦10)

# Same assay, conditions: second TABLE 1 (Examples 39-55)
row,SMILES,Ratio (IC50 RCC4 Proficient VHL)/IC50 RCC4 Deficient VHL)
1,Cc1oc(-c2ccc(C(=O)NCc3cccnc3)cc2)nc1CS(=O)(=O)[C@@H]1CC[C@H](N2CCCC2)C1 [Example 51],b (from 10 to ≦100)
2,Cc1oc(-c2ccc(C(=O)NCc3cccnc3)cc2)nc1CS(=O)(=O)[C@H]1CC[C@H](N2CCCCC2)CC1 [Example 46],b (from 10 to ≦100)
3,Cc1oc(-c2ccc(C(=O)NCc3cccnc3)cc2)nc1CS(=O)(=O)C1CCN(C2CCCCC2)CC1 [Example 55],a (a ratio of RCC4/RCC-VHL+ ranging from 1 to ≦10)
4,Cc1oc(-c2ccc(C(=O)NCc3cccnc3)cc2)nc1CS(=O)(=O)[C@@H]1CC[C@H](N)C1 [Example 50],b (from 10 to ≦100)
5,"Cc1oc(-c2ccc(C(=O)NCc3cccnc3)cc2)nc1CS(=O)(=O)C1CCN(C)CC1 [Example 40, 4-(5-Methyl-4-((1-methylpiperidin-4-ylsulfonyl)methyl)oxazol-2-yl)-N-(pyridin-3-ylmethyl)benzamide]",b (from 10 to ≦100)
6,"Cc1oc(-c2ccc(C(=O)NCc3cccnc3)cc2)nc1CS(=O)(=O)C1CCN(CC(C)C)CC1 [Example 53, 4-(5-methyl-4-[[1-(2-methylpropyl)piperidine-4-sulfonyl]methyl]-1,3-oxazol-2-yl)-N-(pyridin-3-ylmethyl)benzamide]",a (a ratio of RCC4/RCC-VHL+ ranging from 1 to ≦10)
7,Cc1oc(-c2ccc(C(=O)NCc3cccnc3)cc2)nc1CS(=O)(=O)[C@@H]1CC[C@H](N2CCCCC2)C1 [Example 52],a (a ratio of RCC4/RCC-VHL+ ranging from 1 to ≦10)
8,Cc1oc(-c2ccc(C(=O)NCc3cccnc3)cc2)nc1CS(=O)(=O)[C@H]1CC[C@@H](N2CCCCC2)CC1 [Example 43],b (from 10 to ≦100)
9,"Cc1oc(-c2ccc(C(=O)NCc3cccnc3)cc2)nc1CS(=O)(=O)C1CCNCC1 [Example 39, 4-(5-Methyl-4-((piperidin-4-ylsulfonyl)methyl)oxazol-2-yl)-N-(pyridin-3-ylmethyl)benzamide]",b (from 10 to ≦100)
10,Cc1oc(-c2ccc(C(=O)NCc3cccnc3)cc2)nc1CS(=O)(=O)[C@H]1CC[C@H](N2CCCC2)CC1 [Example 45],b (from 10 to ≦100)
11,Cc1oc(-c2ccc(C(=O)NCc3cccnc3)cc2)nc1CS(=O)(=O)[C@H]1CC[C@H](N)C1 [Example 47],b (from 10 to ≦100)
12,"Cc1oc(-c2ccc(C(=O)NCc3cccnc3)cc2)nc1CS(=O)(=O)[C@H]1CC[C@H](N)CC1 [Example 44, 4-(4-[[(4-Aminocyclohexane)sulfonyl]methyl]-5-methyl-1,3-oxazol-2-yl)-N-(pyridin-3-ylmethyl)benzamide]",b (from 10 to ≦100)
13,"Cc1oc(-c2ccc(C(=O)NCc3cccnc3)cc2)nc1CS(=O)(=O)[C@H]1CC[C@@H](N)CC1 [Example 41, 4-(4-(((1s,4s)-4-aminocyclohexylsulfonyl)methyl)-5-methyloxazol-2-yl)-N-(pyridin-3-ylmethyl)benzamide]",b (from 10 to ≦100)
14,Cc1oc(-c2ccc(C(=O)NCc3cccnc3)cc2)nc1CS(=O)(=O)[C@H]1CC[C@H](N2CCCC2)C1 [Example 48],b (from 10 to ≦100)
15,Cc1oc(-c2ccc(C(=O)NCc3cccnc3)cc2)nc1CS(=O)(=O)[C@H]1CC[C@H](N2CCCCC2)C1 [Example 49],b (from 10 to ≦100)
16,Cc1oc(-c2ccc(C(=O)NCc3cccnc3)cc2)nc1CS(=O)(=O)C1CCN(C2CCCC2)CC1 [Example 54],b (from 10 to ≦100)
17,Cc1oc(-c2ccc(C(=O)NCc3cccnc3)cc2)nc1CS(=O)(=O)[C@H]1CC[C@@H](N2CCCC2)CC1 [Example 42],b (from 10 to ≦100)

# Tested on: RCC4
# Experiment: XTT cell viability assay in RCC4 parental (VHL-deficient) cells
# Assay type: cell-based
# Settings: Homo sapiens, 96 h, four days with drug, second TABLE 1 (Examples 39-55)
# Experimental: as §1, §2, §3
row,SMILES,IC50 [nM]
1,Cc1oc(-c2ccc(C(=O)NCc3cccnc3)cc2)nc1CS(=O)(=O)C1CCN(C2CCCCC2)CC1 [Example 55],< 1
2,Cc1oc(-c2ccc(C(=O)NCc3cccnc3)cc2)nc1CS(=O)(=O)[C@H]1CC[C@H](N2CCCCC2)C1 [Example 49],< 1

# Same assay, conditions: four days with drug, second TABLE 1 (Examples 39-55)
row,SMILES,IC50 [nM]
1,"Cc1oc(-c2ccc(C(=O)NCc3cccnc3)cc2)nc1CS(=O)(=O)[C@H]1CC[C@@H](N)CC1 [Example 41, 4-(4-(((1s,4s)-4-aminocyclohexylsulfonyl)methyl)-5-methyloxazol-2-yl)-N-(pyridin-3-ylmethyl)benzamide]",> 20

# Tested on: not given
# Experiment: not given
# Settings: not given
row,SMILES,melting point [°C]
1,"Cc1oc(-c2ccc(C(=O)NCc3cccnc3)cc2)nc1CS(=O)(=O)c1ccc(N2CCOCC2)cc1 [Example 24, 4-[5-Methyl-4-({[4-(4-morpholinyl)phenyl]sulfonyl}methyl)-1,3-oxazol-2-yl]-N-(3-pyridinylmethyl)benzamide]",208 to 210
2,"Cc1ccc(S(=O)(=O)Cc2nc(-c3ccc(C(=O)NCc4cnccn4)cc3)oc2C)cc1 [Example 9, 4-(5-Methyl-4-{[(4-methylphenyl)sulfonyl]methyl}-1,3-oxazol-2-yl)-N-(2-pyrazinylmethyl)benzamide]",204 to 206
3,"Cc1cc(C)cc(S(=O)(=O)Cc2nc(-c3ccc(C(=O)NCc4cccnc4)cc3)oc2C)c1 [Example 15, 4-(4-{[(3,5-Dimethylphenyl)sulfonyl]methyl}-5-methyl-1,3-oxazol-2-yl)-N-(3-pyridinylmethyl)benzamide]",188 to 190
